Measurements from patent publication US11111500B2, “Mutated protoporphyrinogen IX oxidase (PPX) genes” (CIBUS US LLC, priority 2010, dated 2021).

Tests used:
potato plastidal PPX [1] = assay: Tolerance to flumioxazin of HemG mutant E. coli complemented with potato plastidal PPX (liquid selection, colony count); type: cell-based, Solanum tuberosum
Description: (§1) StcPPX1, less its chloroplast transit peptide was cloned from cDNA into Cibus' proprietary functional screening vector. This vector may be used both for functional screening, and for GRON QC. The potato PPX genes were used to complement the HemG mutant strain of E. coli, which lacks a functional HemG gene, a bacterial homolog of PPX. Without a complementing gene, the media must be supplemented with hematin for E. coli growth.
(§2) In order to assess mutations that confer tolerance to PPX inhibitors such as Chateau (flumioxazin-Valent/Sumitomo), Naja (diphenylether—MAI) or Kixor (saflufenacil—BASF). Pure active ingredients for the PPX inhibiting herbicides Chateau (flumioxazin—Valent/Sumitomo), Spartan (sulfentrazone—FMC) and Kixor/Sharpen (saflufenacil—BASF) were obtained. […]
(§3) Liquid culture selection conditions were developed for both sulfentrazone and flumioxazin. […] Spectrophotometric readings (OD600) were taken for each sample (1:4 dilution) and a sample of each plated on LB-Chlor-IPTG plates to determine whether the OD600 correlated with the number of viable colonies. […]
(§4) Randomly mutagenized plasmids (5′ and 3′ ends) were transformed into XL1-Blue E. coli cells. […] Colony counts were compared between the two and mutation tolerance determined based on the percentage of colonies on the 0.75 mM sulfentrazone plates as compared with those on the 0 mM plates. […]

potato plastidal PPX [2] = assay: Tolerance to sulfentrazone of HemG mutant E. coli complemented with potato plastidal PPX (plate selection, colony count); type: cell-based, Solanum tuberosum; settings: wild-type potato plastidal PPX clone in hemG mutant E. coli
Description: as §1, §2, §3, §4

Row | SMILES | colony numbers against the WT gene with increasing flumioxazin (potato plastidal PPX [1]; 0 to 10 mM in 1 mL liquid cultures) | growth of the wildtype construct at 10 mM flumioxazin (potato plastidal PPX [1]; 10 mM flumioxazin, liquid selection) | sulfentrazone concentration on which the wildtype construct did not grow (potato plastidal PPX [2]) [mM]
1 | C#CCN1C(=O)COc2cc(F)c(N3C(=O)C4=C(CCCC4)C3=O)cc21 [flumioxazin] | steadily decreasing colony numbers | limited growth | –
2 | Cc1nn(-c2cc(NS(C)(=O)=O)c(Cl)cc2Cl)c(=O)n1C(F)F [sulfentrazone] | – | – | 2.5
